# Assay results published in patent US20240400553A1, “AMINE BASED MATRIPTASE 2 INHIBITORS AND USES THEREOF” (Disc Medicine, Inc., priority 2023, published 2024).
# Molecular target: T1, Human Recombinant Matriptase 2 (Homo sapiens, UniProt Q8IU80)
# T1 construct: made in house
# T1 sequence (Q8IU80 1-811): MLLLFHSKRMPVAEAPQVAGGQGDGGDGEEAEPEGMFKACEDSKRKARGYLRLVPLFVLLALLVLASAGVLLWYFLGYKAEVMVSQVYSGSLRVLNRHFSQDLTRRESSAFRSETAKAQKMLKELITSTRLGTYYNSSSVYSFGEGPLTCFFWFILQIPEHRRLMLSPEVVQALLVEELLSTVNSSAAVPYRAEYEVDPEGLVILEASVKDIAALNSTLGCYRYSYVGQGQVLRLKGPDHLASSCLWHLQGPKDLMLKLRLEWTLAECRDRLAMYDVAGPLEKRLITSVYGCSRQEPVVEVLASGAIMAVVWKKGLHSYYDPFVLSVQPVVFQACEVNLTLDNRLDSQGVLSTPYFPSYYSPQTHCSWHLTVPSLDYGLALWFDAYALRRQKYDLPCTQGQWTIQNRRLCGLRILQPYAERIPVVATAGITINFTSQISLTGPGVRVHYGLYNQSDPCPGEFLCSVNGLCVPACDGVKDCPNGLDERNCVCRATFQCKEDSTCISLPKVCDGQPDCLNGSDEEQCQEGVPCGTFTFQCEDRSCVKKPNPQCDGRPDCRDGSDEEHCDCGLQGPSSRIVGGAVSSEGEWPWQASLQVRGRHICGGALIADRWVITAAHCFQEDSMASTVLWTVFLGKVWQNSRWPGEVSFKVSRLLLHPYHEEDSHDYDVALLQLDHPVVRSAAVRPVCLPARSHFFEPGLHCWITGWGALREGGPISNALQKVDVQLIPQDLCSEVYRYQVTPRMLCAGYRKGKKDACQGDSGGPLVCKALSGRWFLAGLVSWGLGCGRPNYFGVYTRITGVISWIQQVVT
# Experiment: Matriptase 2 inhibition, fluorescence based assay (Method I)
# Format: biochemical
# Conditions: Table A; Ki of Matriptase-2; read-out: Mat-2 Ki
# Experimental: • Method I: Test compounds were evaluated for their potential to inhibit Human Recombinant Matriptase 2 (in-house) using fluorescence based assay. The concentration of Recombinant Matriptase 2 and the substrate used in the assay was: 3.5 nM (In-house Matriptase 2) and 62 μM (Boc-Gln-Ala-Arg-7-amido-4-methyl coumarin hydrobromide −Cat log: I-1550 from Bachem) respectively. The assay buffer used was 50 mM TRIS pH 7.5, 150 mM NaCl, 0.01% Gelatin TCL059 Himedia). The assay was performed using 384 well black flat bottom plate from grenier (Cat log: 781076) at 25° C. The enzyme and compound were preincubated for 30 mins, the plate was read at 60 mins after substrate addition at wavelength Ex: 360/Em: 480 nm. The final assay volume was 20 μl. A stock solution of compounds was initially prepared in DMSO and appropriate dilutions were made and IC50 was determined for all the compounds (final DMSO conc in the assay was 1%). All the measurements were carried out using the Spectramax M5, Molecular devices.
# To determine Ki values, dose response curves were generated by plotting percentage inhibition as a function of inhibitor concentration and the data was fitted to sigmoidal non-linear regression equation (variable slope) using Graph Pad prism software V8.
row,Ki,Compound
1,0.1 to 0.5 µM,"CC(CCN(C)C)S(=O)(=O)Nc1cc(Cn2c(C(=O)O)cc3ccc(CN)nc32)c2ccccc2c1 (racemic) [Compound 8, 6-(aminomethyl)-1-((3-((3-(dimethylamino)-1-methylpropyl)sulfonamido)naphthalen-1-yl)methyl)-1H-pyrrolo[2,3-b]pyridine-2-carboxylic acid]"
2,≤ 0.1 µM,"C[C@@H](c1ccccc1)S(=O)(=O)Nc1cc(Cn2c(C(=O)OCC3CCN(C)CC3)cc3ccc(CN)nc32)c2ccccc2c1 (racemic) [Compound 11, (1-methylpiperidin-4-yl)methyl 6-(aminometh-yl)-1-{[3-(1-phenyl-ethanesulfonamido)naph-thalen-1-yl]methyl}-1H-pyrrolo[2,3-b]pyridine-2-carboxylate]"
3,≤ 0.1 µM,"CN1CCC(COC(=O)c2cc3ccc(CN)nc3n2Cc2cc(NS(=O)(=O)[C@H](F)c3ccccc3)cc3ccccc23)CC1 (racemic) [Compound 23, (1-methylpiperidin-4-yl)methyl 6-(amino-methyl)-1-({3-[fluoro-(phenyl)methanesulfon-amido]naphthalen-1-yl}-methyl)-1H-pyrrolo[2,3-b]pyridine-2-carboxylate]"
4,≤ 0.1 µM,"CN1CCC[C@H](COC(=O)c2cc3ccc(CN)nc3n2Cc2cc(NS(=O)(=O)Cc3ccccc3)cc3ccccc23)C1 (racemic) [Compound 24, (1-methylpiperidin-3-yl)methyl 6-(amino-methyl)-1-{[3-(phenyl-methanesulfonamido)-naphthalen-1-yl]methyl}-1H-pyrrolo[2,3-b]pyr-idine-2-carboxylate]"
5,≤ 0.1 µM,"CN1CC[C@H](COC(=O)c2cc3ccc(CN)nc3n2Cc2cc(NS(=O)(=O)Cc3ccccc3)cc3ccccc23)CC1=O (racemic) [Compound 30, rac-[(4R)-1-methyl-2-oxopiperidin-4-yl]meth-yl 6-(aminomethyl)-1-{[3-(phenylmethane-sulfonamido)naphthalen-1-yl]methyl}-1H-pyr-rolo[2,3-b]pyridine-2-carboxylate]"
6,≤ 0.1 µM,"NCc1ccc2cc(C(=O)OCC[C@H]3CCCCN3)n(Cc3cc(NS(=O)(=O)Cc4ccccc4)cc4ccccc34)c2n1 (racemic) [Compound 32, 2-(piperidin-2-yl)ethyl 6-(aminomethyl)-1-{[3-(phenylmethanesulfon-amido)naphthalen-1-yl]-methyl}-1H-pyrrolo[2,3-b]pyridine-2-carboxylate]"
7,≤ 0.1 µM,"CN1CC[C@H](CNC(=O)c2cc3ccc(CN)nc3n2Cc2cc(NS(=O)(=O)Cc3ccccc3)cc3ccccc23)CC1=O (racemic) [Compound 37, rac-6-(aminomethyl)-N-{[(4R)-1-methyl-2-oxo-piperidin-4-yl]methyl}-1-{[3-(phenylmethane-sulfonamido)naphthalen-1-yl]methyl}-1H-pyr-rolo[2,3-b]pyridine-2-carboxamide]"
8,≤ 0.1 µM,"CN1CCN[C@@H](COC(=O)c2cc3ccc(CN)nc3n2Cc2cc(NS(=O)(=O)Cc3ccccc3)cc3ccccc23)C1 (racemic) [Compound 41, (4-methylpiperazin-2-yl)methyl 6-(aminometh-yl)-1-{[3-(phenylmeth-ane-sulfonamido)naph-thalen-1-yl]methyl}-1H-pyrrolo[2,3-b]pyridine-2-carboxylate]"
9,≤ 0.1 µM,"C[C@H](OC(=O)c1cc2ccc(CN)nc2n1Cc1cc(NS(=O)(=O)Cc2ccccc2)cc2ccccc12)C1CCN(C)CC1 (racemic) [Compound 48, 1-(1-methylpiperidin-4-ylethyl 6-(aminomethyl)-1-{[3-(phenylmethane-sulfonamido)naphthalen-1-yl]methyl}-1H-pyr-rolo[2,3-b]pyridine-2-carboxylate]"
10,≤ 0.1 µM,"CN1CCN(C)[C@@H](COC(=O)c2cc3ccc(CN)nc3n2Cc2cc(NS(=O)(=O)Cc3ccccc3)cc3ccccc23)C1 (racemic) [Compound 51, (1,4-dimethylpiperazin-2-yl)methyl 6-(amino-methyl)-1-{[3-(phenyl-methanesulfonamido)-naphthalen-1-yl]methyl}-1H-pyrrolo[2,3-b]pyr-idine-2-carboxylate]"
11,≤ 0.1 µM,"CC[C@@H](COC(=O)c1cc2ccc(CN)nc2n1Cc1cc(NS(=O)(=O)Cc2ccccc2)cc2ccccc12)N(C)C (racemic) [Compound 54, rac-(2R)-2-(dimethyl-amino)butyl 6-(amino-methyl)-1-{[3-(phenyl-methanesulfonamido)-naphthalen-1-yl]methyl}-1H-pyrrolo[2,3-b]pyr-idine-2-carboxylate]"
12,≤ 0.1 µM,"CN1CCCC[C@@H]1COC(=O)c1cc2ccc(CN)nc2n1Cc1cc(NS(=O)(=O)Cc2ccccc2)cc2ccccc12 (racemic) [Compound 63, (1-methylpiperidin-2-yl)methyl 6-(aminometh-yl)-1-{[3-(phenylmeth-anesulfonamido)naph-thalen-1-yl]lmethyl}-1H-pyrrolo[2,3-b]pyridine-2-carboxylate]"
13,≤ 0.1 µM,"CN1CCO[C@@H](COC(=O)c2cc3ccc(CN)nc3n2Cc2cc(NS(=O)(=O)Cc3ccccc3)cc3ccccc23)C1 (racemic) [Compound 64, (4-methylmorpholin-2-yl)methyl 6-(aminometh-yl)-1-{[3-(phenylmeth-anesulfonamido)naph-thalen-1-yl]methyl}-1H-pyrrolo[2,3-b]pyridine-2-carboxylate]"
14,≤ 0.1 µM,"C[C@@H](c1ccccc1)S(=O)(=O)Nc1cc(Cn2c(C(=O)O)cc3ccc(CN)nc32)c2ccccc2c1 (racemic) [Compound 73, 6-(aminomethyl)-1-{[3-(1-phenylethanesulfon-amido)naphthalen-1-yl]-methyl}-1H-pyrrolo[2,3-b]pyridine-2-carboxylic acid]"
15,0.1 to 0.5 µM,"CC(=O)O[C@H](C)OC(=O)c1cc2ccc(CN)nc2n1Cc1cc(NS(=O)(=O)Cc2ccccc2)cc2ccccc12 (racemic) [Compound 89, 1-[6-(aminomethyl)-1-{[3-(phenylmethanesul-fonamido)naphthalen-1-yl]methyl}-1H-pyrrolo-[2,3-b]pyridine-2-carbon-yloxy]ethyl acetate]"
16,0.1 to 0.5 µM,"NCc1ccc2cc(C(=O)O)n(Cc3cc(NS(=O)(=O)[C@H](F)c4ccccc4)cc4ccccc34)c2n1 (racemic) [Compound 98, 6-(aminomethyl)-1-({3-[fluoro(phenyl)methane-sulfonamido]naphthalen-1-yl}methyl)-1H-pyr-rolo[2,3-b]pyridine-2-carboxylic acid]"
17,0.1 to 0.5 µM,"CN1CCC[C@H](OC(=O)c2cc3ccc(CN)nc3n2Cc2cc(NS(=O)(=O)Cc3ccccc3)cc3ccccc23)C1 (racemic) [Compound 99, 1-methylpiperidin-3-yl 6-(aminomethyl)-1-{[3-(phenylmethanesulfon-amido)naphthalen-1-yl]-methyl}-1H-pyrrolo[2,3-b]pyridine-2-carboxylate]"
18,0.1 to 0.5 µM,"NCc1ccc2cc(C(=O)OC[C@H]3CCCN3)n(Cc3cc(NS(=O)(=O)Cc4ccccc4)cc4ccccc34)c2n1 (racemic) [Compound 108, rac-[(2R)-pyrrolidin-2-yl]methyl 6-(aminometh-yl)-1-{[3-(phenylmeth-anesulfonamido)naph-thalen-1-yl]methyl}-1H-pyrrolo[2,3-b]pyridine-2-carboxylate]"
19,0.5 to 3 µM,"CC(C)C(=O)O[C@H](C)OC(=O)c1cc2ccc(CN)nc2n1Cc1cc(NS(=O)(=O)Cc2ccccc2)cc2ccccc12 (racemic) [Compound 118, 1-[6-(aminomethyl)-1-{[3-(phenylmethanesul-fonamido)naphthalen-1-yl]methyl}-1H-pyrrolo-[2,3-b]pyridine-2-car-bonyloxylethyl 2-meth-ylpropanoate]"
20,0.5 to 3 µM,"CCOC(=O)c1cc2ccc(CN)nc2n1Cc1cc(NS(=O)(=O)[C@@H](C)c2ccccc2)cc2ccccc12 (racemic) [Compound 119, ethyl 6-(aminomethyl)-1-{[3-(1-phenylethanesul-fonamido)naphthalen-1-yl]methyl}-1H-pyrrolo-[2,3-b]pyridine-2-car-boxylate]"
21,0.5 to 3 µM,"C[C@H](OC(=O)c1ccccc1)OC(=O)c1cc2ccc(CN)nc2n1Cc1cc(NS(=O)(=O)Cc2ccccc2)cc2ccccc12 (racemic) [Compound 124, 1-[6-(aminomethyl)-1-{[3-(phenylmethanesul-fonamido)naphthalen-1-yl]methyl}-1H-pyrrolo-[2,3-b]pyridine-2-car-bonyloxy]ethyl benzoate]"
